Source: patent publication US20050118576A1, “Novel method and assays for yeast-based drug screening” (priority 2000, published 2005)

System: W303-1B/Δydl120w::Kan^R yeast
Assay: Growth of mutant yeast in medium supplemented with Fe(II) or Cu(II) ions (OD620)
Assay type: cell-based, Saccharomyces cerevisiae
Details: increasing concentrations of the metal salt, SD+ medium, 19 hours at 30° C., FIG. 2A/2B
Description: For this experiment, W303-1B/Δydl120w::Kan^R and wild-type yeast precultures were grown in YPD medium for 16-24 hours at 30° C. until OD600 0.4-0.6. The precultures were diluted into SD+ medium (6.7 mg/ml yeast nitrogen base w/o amino acids, 2 mg/ml yeast extracts, 0.04 mg/ml adenine sulfate, 0.0625 mg/ml uracil, 0.04 mg/ml L-leucine, 0.03 mg/ml L-histidine-HCl, 0.03 mg/ml L-tryptophane in water) supplemented with variable concentrations of FeSO4 (dissolved in 0.1 N HCl) or CuSO4 (dissolved in water). Aliquots of 100 microliter of yeast suspension were dispensed into single wells of a 96-well microtiter plate. In the experiments with FeSO4 supplementation (FIG. 2A) culture medium for W303-1B/Δydl120w::Kan^R and wild-type yeast contained 4% w/v glucose and all wells were adjusted to the same final concentration of HCl and to DMSO (1% v/v) to prevent the solvent from interfering with the results.
Following 19 hours of culture at 30° C., the growth of yeast was determined by OD620 measurement using a microplate reader.

Row | Structure (SMILES) | growth of yeast as determined by OD620 measurement
1 | O=S(=O)([O-])[O-].[Cu+2] [CuSO4] | clearly inhibit the growth of the frataxin deficient yeast
2 | O=S(=O)([O-])[O-].[Fe+2] [FeSO4] | clearly inhibit the growth of the frataxin deficient yeast
